Earlier results on two molecules are cited in patent US8652504B2, “Solid polymer delivery compositions and methods for use thereof” (Medivas, LLC, priority 2005, dated 2014).

One data set concerns nerve impulses. The following applies: local anesthetic.
The conditions of data set [1]: in vivo.

On to `CCN(CC)CC(=O)Nc1c(C)cccc1C` [lidocaine], for which the duration of action with nerve impulses is 1 to 2 h.

In the case of `CCCCN1CCCCC1C(=O)Nc1c(C)cccc1C` (centres unmarked) [bupivacaine], the duration of action with nerve impulses was 6 to 8 h. The “morphine requirements and subjective pain scores” value (intra-articular bupivacaine (up to 0.5%) at 4 mL/hr, first 24 hours after surgery) is “neither reduced morphine requirements nor decreased subjective pain scores”. Besides, the serum bupivacaine level (one patient receiving 0.5% intra-articular bupivacaine at 4 mL/hr) is 1.2 µg/mL. The “serum bupivacaine level at which toxicity has been reported / generally considered toxic” value in data set [1] was 1.0 µg/mL.
